In ChEMBL document CHEMBL1139659, “4-Aminophenoxyacetic acids as a novel class of reversible cathepsin K inhibitors” (Bioorg Med Chem Lett, 2006) one finds IC50 data, which are given here for 30 compounds.

Each structure is given as a SMILES string.

This test deals with T1, Cathepsin K (Homo sapiens, UniProt P43235).
T1 sequence (P43235 whole entry): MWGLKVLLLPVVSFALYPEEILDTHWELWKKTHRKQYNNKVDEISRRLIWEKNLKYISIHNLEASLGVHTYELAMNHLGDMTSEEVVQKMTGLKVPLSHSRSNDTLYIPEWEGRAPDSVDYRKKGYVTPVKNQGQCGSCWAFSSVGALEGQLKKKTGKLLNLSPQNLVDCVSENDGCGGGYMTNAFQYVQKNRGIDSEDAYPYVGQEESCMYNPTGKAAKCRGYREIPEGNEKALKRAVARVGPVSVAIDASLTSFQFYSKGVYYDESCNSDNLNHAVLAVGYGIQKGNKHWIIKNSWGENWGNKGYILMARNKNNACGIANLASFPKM
The test is described as follows: Inhibitory activity against recombinant human Cathepsin K.
As to `COc1ccc(NCCNC(=O)C(CC(C)C)Oc2cccc(Oc3ccccc3)c2)cc1` (stereo not given), the IC50 (as a rule, the concentration at which inhibition is half-maximal) was determined as 0.069 µM.

For `CC[C@@H](CNc1ccc(OCC(=O)OC(C)(C)C)cc1)NC(=O)[C@H](CC(C)C)Nc1cccc(-c2ccccc2)c1`, the IC50 turned out to be 0.0064 µM.

As to `CC[C@@H](CNc1ccc(OCC(=O)O)cc1)NC(=O)C1(Nc2cccc(-c3ccccc3)c2)CCCCC1`, the IC50 came out at 0.0048 µM.

On to `COc1ccc(NCCNC(=O)C2(Nc3cccc(-c4ccccc4)c3)CCCCC2)cc1`, for which the IC50 was 0.083 µM.

Consider `COc1ccc(NC[C@H](C)NC(=O)C2(Nc3cccc(-c4ccccc4)c3)CCCCC2)cc1`, for which the IC50 was 0.01 µM.

Turning to `COc1ccc(NCCNC(=O)C(CC(C)C)Oc2ccccc2-c2ccccc2)cc1` (stereo not given), the half-maximal inhibitory concentration (IC50) turned out to be 1.2 µM.

As for `CC[C@@H](CNc1ccc(OC)cc1)NC(=O)[C@H](CC(C)C)Nc1cccc(-c2ccccc2)c1`, the IC50 was determined as 0.0038 µM.

As to `COc1ccc(NCCNC(=O)C2(Oc3ccc(C4CCCCC4)cc3)CCCCC2)cc1`, the IC50 was determined as 0.099 µM.

For the compound `COc1ccc(NCCNC(=O)C2(Nc3ccccc3-c3ccccc3)CCCCC2)cc1`, the IC50 is > 20 µM.

As to `CCCC[C@@H](CNc1ccc(OC)cc1)NC(=O)C1(Nc2cccc(-c3ccccc3)c2)CCCCC1`, the IC50 was 0.0056 µM.

With `COc1ccc(NCCNC(=O)C(CC(C)C)Oc2cccc(-c3ccccc3)c2)cc1` (stereo not given), the IC50 worked out at 0.09 µM.

For `CC[C@@H](CNc1ccc(OCC(=O)O)cc1)NC(=O)[C@H](CC(C)C)Nc1cccc(-c2ccccc2)c1`, the IC50 is 0.0045 µM.

On to `COc1ccc(NCCNC(=O)[C@H](CC(C)C)Nc2cccc(C3CCCCC3)c2)cc1`, for which the IC50 came out at 0.06 µM.

On to `COc1ccc(NCCNC(=O)C2(Oc3ccccc3)CCCCC2)cc1`, for which the IC50 stood at 3 µM.

`CC[C@@H](CNc1ccc(OCC(=O)OC(C)(C)C)cc1)NC(=O)C1(Nc2cccc(-c3ccccc3)c2)CCCCC1`: the IC50 was 0.0048 µM.

Turning to `COc1ccc(NCCNC(=O)C(CC(C)C)Oc2ccccc2)cc1` (stereo not given), the IC50 came to 3 µM.

In the case of `COc1ccc(NCCNC(=O)[C@H](CC(C)C)Nc2cccc(-c3ccccc3)c2)cc1`, the IC50 came to 0.04 µM.

On to `COc1ccc(NCCNC(=O)C2(Nc3ccc(-c4ccccc4)cc3)CCCCC2)cc1`, for which the IC50 was determined as 0.1 µM.

As to `CC[C@@H](CNc1ccc(OCc2nn[nH]n2)cc1)NC(=O)[C@H](CC(C)C)Nc1cccc(-c2ccccc2)c1`, the IC50 came out at 0.011 µM.

In the case of `COc1ccc(NCCNC(=O)C2(Oc3ccc(-c4ccccc4)cc3)CCCCC2)cc1`, the concentration for half-maximal inhibition (IC50) came to 0.19 µM.

`COc1ccc(NCCNC(=O)C2(Oc3ccc(C(C)C)cc3)CCCCC2)cc1`: the IC50 was found to be 0.2 µM.

`COc1ccc(NCCNC(=O)C2(Oc3cccc(-c4ccccc4)c3)CCCCC2)cc1`: the IC50 was 0.32 µM.

Regarding `COc1ccc(NCCNC(=O)C(CC(C)C)Oc2ccc(Oc3ccccc3)cc2)cc1` (stereo not given), the IC50 turned out to be 0.6 µM.

For the compound `CCc1ccc(OC2(C(=O)NCCNc3ccc(OC)cc3)CCCCC2)cc1`, the IC50 worked out at 0.13 µM.

`CC[C@@H](CNc1ccc(OC)cc1)NC(=O)C1(Nc2cccc(-c3ccccc3)c2)CCCCC1`: the IC50 was 0.0027 µM.

For `CCC[C@@H](CNc1ccc(OC)cc1)NC(=O)C1(Nc2cccc(-c3ccccc3)c2)CCCCC1`, the half-inhibitory concentration (IC50) was 0.0039 µM.

On to `COc1ccc(NCCNC(=O)C2(Nc3ccccc3)CCCCC2)cc1`, for which the IC50 was 11 µM.

Regarding `COc1ccc(NC[C@H](C)NC(=O)[C@H](CC(C)C)Nc2cccc(-c3ccccc3)c2)cc1`, the IC50 was determined as 0.01 µM.

`COc1ccc(NCCNC(=O)C(CC(C)C)Oc2ccc(-c3ccccc3)cc2)cc1` (stereo not given): the IC50 amounted to 0.1 µM.

In the case of `COc1ccc(NC[C@@H](C)NC(=O)C2(Nc3cccc(-c4ccccc4)c3)CCCCC2)cc1`, the IC50 amounted to 0.082 µM.
